Data: patent EP0319030A1, “Aminopropanol derivatives of 1,4:3,6-dianhydro-hexitol nitrates, processes for their preparation and their use as medicaments” (Heinrich Mack Nachf., priority 1987, dated 1989)
Marks after values point to notes of the source that are not given here.

Tests used:
Format in all cases: in vivo
conscious beagle dogs = assay: Systolic blood pressure and heart rate following peroral administration; conditions: 5.0 mg/kg peroral, mean ± SEM
Source text: (§1) In particular, they have a pronounced cardiovascular action. On isolated strips of veins from dogs, they act against the K⁺-induced contraction in a lower concentration than on aorta strips. On isolated hearts from guinea pigs, they increase coronary flow as a function of the dose. On anesthetized rats, they prevent lypressin coronary spasm as a function of the dose and significiantly increase the survival rate of rats following acute cardiac infarction. On normotensive conscious dogs, they lower the systolic blood pressure for a period of 6-8 hours after oral administration. On artifically respirated anesthetized, thoraxotomized dogs, they reduce the mean arterial pressure, the left ventricular systolic pressure, the left ventricular end diastolic pressure and the pressure in the Arteria pulmonalis and reduce the peripheral vascular resistance. In contrast to the known organic nitrate esters, they also lead to a long-lasting reduction in the systolic blood pressure of spontaneously hypertensive rats. Such an action profile is not known for any of the substances of similar structure which have already been described.

rats = assay: Survival rate after acute coronary ligature, method of I. Lepran et al.; conditions: 100.0 mg/kg orally 5 minutes before ligature
Source text: as §1

Mice = assay: Peroral tolerance in mice; conditions: 500 mg/kg perorally, mice
Source text: Set forth below is data obtained on the compounds of Examples 17, 19 and 20 that illustrates the pharmacological action of the compounds of the present invention.

anesthetized rat = assay: Lypressin-induced T-wave increase in the ECG (lypressin coronary spasm), method of M. Leitold et al.
Source text: as §1

**Q.** With `COc1ccccc1N1CCN(CC(O)CO[C@@H]2CO[C@H]3[C@@H]2OC[C@H]3O[N+](=O)[O-])CC1` (some centres unmarked) [Example 19, 5-O-<3-[4-(2-Methoxyphenyl)-piperzinyl]-2-hydroxypropyl>-isomannide-2-nitrate] as the compound, how does the “HR (heart rate), Action of substance after 1 hours” value (conscious beagle dogs) read?
**A.** 101 ± 5 Bts/M

**Q.** And the “HR (heart rate), Action of substance after 2 hours” value (conscious beagle dogs)?
**A.** 90 ± 5 Bts/M

**Q.** What about the “HR (heart rate), Action of substance after 4 hours” value (conscious beagle dogs) of the same compound?
**A.** 85 ± 5 Bts/M

**Q.** What about the “HR (heart rate), Action of substance after 6 hours” value (conscious beagle dogs) of the same compound?
**A.** 86 ± 5 Bts/M

**Q.** And the “SBP (systolic blood pressure), Action of substance after 1 hours” value (conscious beagle dogs)?
**A.** 105 ± 8 mmHg

**Q.** What about the “SBP (systolic blood pressure), Action of substance after 2 hours” value (conscious beagle dogs) of the same compound?
**A.** 105 ± 5 mmHg

**Q.** What about the “SBP (systolic blood pressure), Action of substance after 4 hours” value (conscious beagle dogs) of the same compound?
**A.** 118 ± 6 mmHg

**Q.** What about the “SBP (systolic blood pressure), Action of substance after 6 hours” value (conscious beagle dogs) of the same compound?
**A.** 126 ± 6 mmHg

**Q.** What about the “Number of rats surviving after an acute coronary ligature, 24 hours” value (rats; control 21/80) of the same compound?
**A.** 15/20*

**Q.** And the “Number of rats surviving after an acute coronary ligature, 7 days” value (rats; control 21/80)?
**A.** 15/20*

**Q.** What about the “Number of rats surviving after an acute coronary ligature, 60 minutes” value (rats; control 23/80) of the same compound?
**A.** 15/20*

**Q.** And the “tolerance (clinical symptoms, fatal consequences)” value (Mice)?
**A.** without clinical symptoms and without fatal consequences

**Q.** What about the ED50 (anesthetized rat; Rattus norvegicus, po, 0.5 h, perorally 30 minutes before the lypressin injection, dose column in mg/kg) of the same compound?
**A.** 46.7 mg/kg

**Q.** And the “Duration of action at the ED50 dose” value (anesthetized rat; perorally at various times before the lypressin injection)?
**A.** 4 h
